The results in this text go back to patent publication US20210070748A1, “INHIBITORS OF BRUTONS TYROSINE KINASE” (Pharmacyclics LLC, priority 2015, published 2021).

The term IC50 denotes the concentration that gives 50% inhibition.

What all share (format): biochemical
One experiment has as its target LCK (Homo sapiens, UniProt P06239). The experiment in a line: Inhibition of a panel of kinases, in vitro HotSpot kinase assay: LCK. The note with it: 1 μM ATP, read-out: LCK (IC50).
Another experiment concerns the target T1, JAK3 (Homo sapiens, UniProt P52333).
T1 sequence (P52333 1-1124): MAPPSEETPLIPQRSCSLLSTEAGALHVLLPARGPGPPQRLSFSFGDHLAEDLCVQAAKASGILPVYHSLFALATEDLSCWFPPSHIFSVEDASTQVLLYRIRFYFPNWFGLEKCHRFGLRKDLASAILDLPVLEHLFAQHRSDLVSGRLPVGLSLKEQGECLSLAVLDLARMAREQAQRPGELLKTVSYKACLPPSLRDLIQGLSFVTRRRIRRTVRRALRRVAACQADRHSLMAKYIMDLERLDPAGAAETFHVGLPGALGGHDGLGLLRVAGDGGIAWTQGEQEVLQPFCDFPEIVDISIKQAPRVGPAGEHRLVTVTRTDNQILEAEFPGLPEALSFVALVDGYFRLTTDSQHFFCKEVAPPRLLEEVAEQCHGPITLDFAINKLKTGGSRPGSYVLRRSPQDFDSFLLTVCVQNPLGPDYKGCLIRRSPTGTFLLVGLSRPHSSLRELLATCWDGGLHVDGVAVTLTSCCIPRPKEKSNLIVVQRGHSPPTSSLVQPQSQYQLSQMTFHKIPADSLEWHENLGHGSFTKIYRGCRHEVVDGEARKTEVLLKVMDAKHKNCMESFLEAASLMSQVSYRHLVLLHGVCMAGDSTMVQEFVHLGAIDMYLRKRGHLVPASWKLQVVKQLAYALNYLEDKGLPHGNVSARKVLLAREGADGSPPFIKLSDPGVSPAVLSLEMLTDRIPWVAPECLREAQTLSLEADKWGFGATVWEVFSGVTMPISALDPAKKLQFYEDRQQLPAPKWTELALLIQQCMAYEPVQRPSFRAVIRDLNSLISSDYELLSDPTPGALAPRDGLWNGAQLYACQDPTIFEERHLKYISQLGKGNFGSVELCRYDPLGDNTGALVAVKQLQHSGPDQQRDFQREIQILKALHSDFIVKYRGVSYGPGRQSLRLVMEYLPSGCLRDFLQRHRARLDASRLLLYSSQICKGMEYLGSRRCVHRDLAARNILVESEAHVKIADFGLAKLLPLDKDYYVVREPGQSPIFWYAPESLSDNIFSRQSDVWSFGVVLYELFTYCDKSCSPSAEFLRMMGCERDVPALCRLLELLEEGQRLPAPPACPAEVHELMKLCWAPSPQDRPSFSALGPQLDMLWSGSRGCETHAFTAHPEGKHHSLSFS
The experiment in a line: Inhibition of a panel of kinases, in vitro HotSpot kinase assay: JAK3. The note with it: 1 μM ATP, read-out: JAK3 (IC50).

The target of a further experiment is T2, BTK-WT (Homo sapiens, UniProt Q06187).
T2 construct: purified from insect cells as a full-length construct containing an N-terminal 6X-His tag; His6 (N); made in house; host or cells: insect cells (baculovirus Sf21 in Method B)
The experiment in a line: Btk in vitro inhibitory activity (one of Method A TR-FRET, Method B electrophoretic mobility shift, Method C radiometric filter binding). Conditions: read-out: BTK-WT (IC50). Background: In EMSA bound probe runs differently from free probe, usually more slowly.

Structures can show the parent of a compound that is named as a salt. Where two headings read alike, the source gives them in different places.

Sequence of LCK (P06239 whole entry): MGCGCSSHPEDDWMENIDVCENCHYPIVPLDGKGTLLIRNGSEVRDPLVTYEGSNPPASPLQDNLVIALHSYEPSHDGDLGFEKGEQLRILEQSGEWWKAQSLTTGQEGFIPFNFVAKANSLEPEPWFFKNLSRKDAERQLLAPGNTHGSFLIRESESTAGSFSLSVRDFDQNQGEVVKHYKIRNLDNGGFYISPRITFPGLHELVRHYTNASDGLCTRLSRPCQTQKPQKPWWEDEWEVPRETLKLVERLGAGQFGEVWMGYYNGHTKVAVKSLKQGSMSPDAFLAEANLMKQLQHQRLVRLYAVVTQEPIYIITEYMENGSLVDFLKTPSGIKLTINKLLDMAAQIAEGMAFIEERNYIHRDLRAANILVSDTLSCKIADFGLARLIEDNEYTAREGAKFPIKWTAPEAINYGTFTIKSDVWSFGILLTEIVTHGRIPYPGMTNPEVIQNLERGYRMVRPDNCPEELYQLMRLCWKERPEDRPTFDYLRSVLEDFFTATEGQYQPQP
T2 sequence (Q06187 whole entry): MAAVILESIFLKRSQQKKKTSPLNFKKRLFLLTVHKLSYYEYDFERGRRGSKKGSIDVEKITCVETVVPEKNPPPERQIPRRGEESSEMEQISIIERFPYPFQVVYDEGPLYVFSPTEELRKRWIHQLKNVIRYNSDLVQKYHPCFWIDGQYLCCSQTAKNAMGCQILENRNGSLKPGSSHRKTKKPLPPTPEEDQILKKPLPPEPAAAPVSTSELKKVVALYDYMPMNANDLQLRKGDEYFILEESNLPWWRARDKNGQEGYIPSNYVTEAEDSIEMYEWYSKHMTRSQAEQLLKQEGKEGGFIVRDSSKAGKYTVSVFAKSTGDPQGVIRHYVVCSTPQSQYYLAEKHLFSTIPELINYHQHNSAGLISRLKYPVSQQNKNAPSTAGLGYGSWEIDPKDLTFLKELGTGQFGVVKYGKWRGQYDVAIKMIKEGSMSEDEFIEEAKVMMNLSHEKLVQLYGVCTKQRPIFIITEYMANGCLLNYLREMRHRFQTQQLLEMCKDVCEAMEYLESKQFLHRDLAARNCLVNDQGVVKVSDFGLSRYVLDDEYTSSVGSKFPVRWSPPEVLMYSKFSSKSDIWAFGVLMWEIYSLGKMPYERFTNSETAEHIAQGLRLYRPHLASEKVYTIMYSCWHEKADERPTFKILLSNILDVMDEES

Take `CN(C)c1ccc(C(=O)N[C@@H]2CCCN(c3cnc(C(N)=O)c(Nc4ccc(C5CCN(C6CCCC6)CC5)cc4)n3)C2)cc1` [Example A-7, 3-{[4-(1-cyclopentylpiperidin-4-yl)phenyl]amino}-5-[(3R)-3-[4-(dimethylamino)benzamido]piperidin-1-yl]pyrazine-2-carboxamide hydrochloride]: the IC50 is 100 to 1000 nM on LCK (Table 10, Formula A-I); 100 to 1000 nM at JAK3 (Table 10, Formula A-I); at most 100 nM at BTK-WT (Table 10, Formula A-I).

As to `Cc1cc(Nc2nc(N3CCC[C@H](NC(=O)c4ccc(N(C)C)cc4)[C@@H]3C)cnc2C(N)=O)sn1` [Example A-54, 5-[(2S,3S)-3-[4-(dimethylamino)benzamido]-2-methylpiperidin-1-yl]-3-[(3-methyl-1,2-thiazol-5-yl)amino]pyrazine-2-carboxamide], the IC50 at LCK (Table 10, Formula A-I) is 100 to 1000 nM; on JAK3 (Table 10, Formula A-I) it was 1000 to 10000 nM; on BTK-WT (Table 10, Formula A-I) it was at most 100 nM.

Consider `Cc1cccc(NC(=O)N[C@@H]2CCCN(c3cnc(C(N)=O)c(Nc4cc(C)ns4)n3)C2)c1` [Example A-10, 3-[(3-methyl-1,2-thiazol-5-yl)amino]-5-[(3R)-3-{[(3-methylphenyl)carbamoyl]amino}piperidin-1-yl]pyrazine-2-carboxamide], for which the IC50 on LCK (Table 10, Formula A-I) is 100 to 1000 nM; on JAK3 (Table 10, Formula A-I) it was 1000 to 10000 nM; on BTK-WT (Table 10, Formula A-I) it was at most 100 nM.

Consider `Cc1cc(Nc2nc(N3CCC[C@@H](NC(=O)c4ccc(F)cc4)C3)cnc2C(N)=O)sn1` [Example A-20, 5-[(3R)-3-(4-fluorobenzamido)piperidin-1-yl]-3-[(3-methyl-1,2-thiazol-5-yl)amino]pyrazine-2-carboxamide], for which the IC50 is 100 to 1000 nM on LCK (Table 10, Formula A-I); over 10000 nM at JAK3 (Table 10, Formula A-I); at most 100 nM at BTK-WT (Table 10, Formula A-I).

Consider `C=CC(=O)N1CC[C@@H](Nc2nnc(C(N)=O)c(Nc3ccc(C(C)C)cc3)n2)C1` [Example C-32, (R)-3-(1-acryloylpyrrolidin-3-ylamino)-5-(4-isopropylphenylamino)-1,2,4-triazine-6-carboxamide], for which the IC50 at LCK (Table 12, Formula C-I) was 100 to 1000 nM; at JAK3 (Table 12, Formula C-I) it was under 100 nM; on BTK-WT (Table 12, Formula C-I), at most 100 nM.

As for `Cc1cc(Nc2nc(N[C@@H]3CCCN(C(=O)c4ccccc4)C3)cnc2C(N)=O)sn1` [Example C-3, 5-{[(3R)-1-benzoylpiperidin-3-yl]amino}-3-[(3-methyl-1,2-thiazol-5-yl)amino]pyrazine-2-carboxamide], the IC50 at LCK (Table 12, Formula C-I) was over 10000 nM; at JAK3 (Table 12, Formula C-I), over 10000 nM; on BTK-WT (Table 12, Formula C-I), at most 100 nM.

On to `Cc1cc(Nc2nc(N3CCC[C@H](NC(=O)N(C)C)[C@@H]3C)cnc2C(N)=O)sn1` [Example A-58, 5-[(2S,3S)-3-[(dimethylcarbamoyl)amino]-2-methylpiperidin-1-yl]-3-[(3-methyl-1,2-thiazol-5-yl)amino]pyrazine-2-carboxamide], for which the IC50 is 1000 to 10000 nM on LCK (Table 10, Formula A-I); 1000 to 10000 nM at JAK3 (Table 10, Formula A-I); at most 100 nM at BTK-WT (Table 10, Formula A-I).

`CN1CCN(C(=O)c2ccc(Nc3nc(NC4CCC(NC(=O)N(C)C)CC4)cnc3C(N)=O)cc2)CC1` (stereo not drawn) [Example B-13, 5-(4-(3,3-dimethylureido)cyclo-hexylamino)-3-(4-(4-methylpiperazine-1-carbonyl)phenylamino) pyrazine-2-carboxamide]: the IC50 on LCK (Table 11, Formula B-I) is under 100 nM; on JAK3 (Table 11, Formula B-I) it was 100 to 1000 nM; at BTK-WT (Table 11, Formula B-I) it was at most 100 nM.

As for `C[C@H]1[C@@H](NC(=O)N(C)C)CCCN1c1cnc(C(N)=O)c(Nc2ccc3ncccc3c2)n1` [Example A-60, 5-[(2S,3S)-3-[(dimethylcarbamoyl)amino]-2-methylpiperidin-1-yl]-3-[(quinolin-6-yl)amino]pyrazine-2-carboxamide], the IC50 at LCK (Table 10, Formula A-I) was over 10000 nM; at JAK3 (Table 10, Formula A-I), 1000 to 10000 nM; on BTK-WT (Table 10, Formula A-I) it was 100 to 1000 nM.

For the compound `Cc1cc(Nc2nc(N3CCC[C@@H](NC(=O)C4CCCCC4)C3)cnc2C(N)=O)sn1` [Example A-28, 5-[(3R)-3-cyclohexaneamidopiperidin-1-yl]-3-[(3-methyl-1,2-thiazol-5-yl)amino]pyrazine-2-carboxamide], the IC50 at LCK (Table 10, Formula A-I) was 100 to 1000 nM; on JAK3 (Table 10, Formula A-I), 1000 to 10000 nM; at BTK-WT (Table 10, Formula A-I), at most 100 nM.

For `C[C@@H]1[C@H](NC(=O)N(C)C)CCCN1c1cnc(C(N)=O)c(Nc2ccc3ncccc3c2)n1` [Example A-59, 5-[(2R,3R)-3-[(dimethylcarbamoyl)amino]-2-methylpiperidin-1-yl]-3-[(quinolin-6-yl)amino]pyrazine-2-carboxamide], the IC50 is 100 to 1000 nM at LCK (Table 10, Formula A-I); 1000 to 10000 nM on JAK3 (Table 10, Formula A-I); at most 100 nM on BTK-WT (Table 10, Formula A-I).

Turning to `Cc1cc(Nc2nc(N3CCC[C@@H](NC(=O)c4cccc(F)c4)C3)cnc2C(N)=O)sn1` [Example A-22, 5-[(3R)-3-(3-fluorobenzamido)piperidin-1-yl]-3-[(3-methyl-1,2-thiazol-5-yl)amino]pyrazine-2-carboxamide], the IC50 is 100 to 1000 nM at LCK (Table 10, Formula A-I); 100 to 1000 nM on JAK3 (Table 10, Formula A-I); at most 100 nM at BTK-WT (Table 10, Formula A-I).

As for `CN1CCN(C(=O)c2ccc(Nc3nc(NC4CCC(NC(=O)c5ccc(C6CC6)cc5F)CC4)cnc3C(N)=O)cc2)CC1` (stereo not drawn) [Example B-15, 5-(4-(4-cyclopropyl-2-fluoro-benzamido)cyclohexyl-amino)-3-(4-(4-methylpiperazine-1-carbonyl)phenylamino) pyrazine-2-carboxamide], the 50% inhibitory concentration (IC50) on LCK (Table 11, Formula B-I) is under 100 nM; on JAK3 (Table 11, Formula B-I), under 100 nM; at BTK-WT (Table 11, Formula B-I), at most 100 nM.

For the compound `CN(C)C(=O)N[C@@H]1CCCN(c2cnc(C(N)=O)c(Nc3ccc4ncccc4c3)n2)C1` [Example A-47, 5-[(3R)-3-[(dimethylcarbamoyl)amino]piperidin-1-yl]-3-[(quinolin-6-yl)amino]pyrazine-2-carboxamide], the IC50 at LCK (Table 10, Formula A-I) was over 10000 nM; on JAK3 (Table 10, Formula A-I), 1000 to 10000 nM; on BTK-WT (Table 10, Formula A-I) it was at most 100 nM.

For `Cc1cc(Nc2nc(N[C@@H]3CCN(C(=O)N(C)C)C3)cnc2C(N)=O)sn1` [Example C-12, 5-([(3R)-1-(dimethylcarbamoyl)pyrrolidin-3-yl]amino)-3-[(3-methyl-1,2-thiazol-5-yl)amino]pyrazine-2-carboxamide], the IC50 at LCK (Table 12, Formula C-I) is 100 to 1000 nM; on JAK3 (Table 12, Formula C-I), 100 to 1000 nM; on BTK-WT (Table 12, Formula C-I), 100 to 1000 nM.

Regarding `Cc1cc(Nc2nc(N[C@@H]3CCN(C(=O)c4ccc(N(C)C)cc4)C3)cnc2C(N)=O)sn1` [Example C-13, 5-([(3R)-1-[4-(dimethylamino)benzoyl]pyrrolidin-3-yl]amino)-3-[(3-methyl-1,2-thiazol-5-yl)amino]pyrazine-2-carboxamide], the IC50 on LCK (Table 12, Formula C-I) was 1000 to 10000 nM; at JAK3 (Table 12, Formula C-I) it was 1000 to 10000 nM; on BTK-WT (Table 12, Formula C-I), at most 100 nM.

Consider `Cc1cc(Nc2nc(N3CCC[C@@H](N4CCN(c5cccc(Cl)c5)C4=O)C3)cnc2C(N)=O)sn1` [Example A-52, 5-[(3R)-3-[3-(3-chlorophenyl)-2-oxoimidazolidin-1-yl]piperidin-1-yl]-3-[(3-methyl-1,2-thiazol-5-yl)amino]pyrazine-2-carboxamide], for which the IC50 on LCK (Table 10, Formula A-I) is under 100 nM; on JAK3 (Table 10, Formula A-I), 100 to 1000 nM; on BTK-WT (Table 10, Formula A-I), at most 100 nM.

With `Cc1cc(Nc2nc(N3CCC(CNC(=O)c4ccccc4)CC3)cnc2C(N)=O)sn1` [Example A-76, 3-[(3-methyl-1,2-thiazol-5-yl)amino]-5-{4-[(phenylformamido)methyl]piperidin-1-yl}pyrazine-2-carboxamide], the IC50 on LCK (Table 10, Formula A-I) is 100 to 1000 nM; on JAK3 (Table 10, Formula A-I), under 100 nM; on BTK-WT (Table 10, Formula A-I), at most 100 nM.
